Source: ChEMBL document CHEMBL3430912, “GSK Tres Cantos Anti-Kinetoplastid Screening (TCAKS) Data”

Columns and labels:
[1] = tested on: Trypanosoma cruzi; assay: GSK_TCAKS: pIC50 Trypanosoma cruzi viability assay using beta-GAL activity. This assay was run at single shot at 5uM compound concentration per well. The biological reagents consisted of NIH-3T3 host cells and trypomastigotes parasitic cells; both cell types were set to a 3.3 * 10^5 cells/mL dilution in assay DMEM by means of a CASY cell counter device using a 60um capillary. 6 uL of the mixture were dispensed per well (about 1 * 10^3 host-cells and 1 * 10^3 parasites) with a Multidrop Combi dispenser. […] In all wells, the percentage of DMSO never exceeded 0.5%. Plates incubated for four days at 37C, 5% CO2. The substrate used for the assay fluorescence intensity (FLINT) readout was resorufin-beta-D-galactopiranoside (Sigma-Aldrich) at 5uM per well. It was diluted in PBS supplemented with the soft detergent Igepal (Fluka).; assay type: functional, organism-based, Mus musculus; conditions: Tulahuen, NIH3T3
[2] = tested on: Trypanosoma cruzi; assay: (§1) GSK_TCAKS: pIC50 Trypanosoma cruzi Imaging: Infected Cells. […] Cells were then washed once with PBS before infection. T. cruzi trypomastigotes, collected at days 5 to 8 after infection from LLC-MK2 parasite infected cultures, were allowed to swim out for 4h at 37C from a centrifuged pellet (2,500 rpm/10 min/room temperature). Trypomastigotes were then collected and counted in a CASY Cell Counter. Trypomastigotes, in supplemented DMEM, were added to H9c2 cultures in a multiplicity of infection of 1 and incubated for 18 h. Cells were washed once with PBS before incubation of the infected H9c2 monolayer with trypsin (Life-Technologies) to detach cells from the flask. Cells were counted in a CASY Cell Counter using a 150 um capillary and their density set at 5 * 10^4 cells per mL in supplemented assay DMEM. Infected H9c2 were dispensed into 384-well poly-lysine coated assay plates at 50uL per well using a Multidrop Combi dispenser. After seeding them, the plates were incubated at 37C, 5% CO2 for 72h. Cultures were then fixed and stained by addition of 50 uL of a solution containing 8% formaldehyde and 4 uM DRAQ5 DNA dye (BioStatus, UK) per well. […] Five images were collected per well for reliable statistical analysis. Automated image analysis was performed with a script developed on Acapella High Content Imaging and Analysis Software (PerkinElmer). Output: percentage of infected cells per well as a second infection marker.; assay type: functional, organism-based, Rattus norvegicus; conditions: H9c2, 4 h
[3] = tested on: Trypanosoma cruzi; assay: GSK_TCAKS: pIC50 Trypanosoma cruzi Imaging: Amastigotes/Cell. […] Cells were then washed once with PBS before infection. T. cruzi trypomastigotes, collected at days 5 to 8 after infection from LLC-MK2 parasite infected cultures, were allowed to swim out for 4h at 37C from a centrifuged pellet (2,500 rpm/10 min/room temperature). Trypomastigotes were then collected and counted in a CASY Cell Counter. Trypomastigotes, in supplemented DMEM, were added to H9c2 cultures in a multiplicity of infection of 1 and incubated for 18 h. Cells were washed once with PBS before incubation of the infected H9c2 monolayer with trypsin (Life-Technologies) to detach cells from the flask. Cells were counted in a CASY Cell Counter using a 150 um capillary and their density set at 5 * 10^4 cells per mL in supplemented assay DMEM. Infected H9c2 were dispensed into 384-well poly-lysine coated assay plates at 50uL per well using a Multidrop Combi dispenser. After seeding them, the plates were incubated at 37C, 5% CO2 for 72h. Cultures were then fixed and stained by addition of 50 uL of a solution containing 8% formaldehyde and 4 uM DRAQ5 DNA dye (BioStatus, UK) per well. […] Five images were collected per well for reliable statistical analysis. Automated image analysis was performed with a script developed on Acapella High Content Imaging and Analysis Software (PerkinElmer). Output: number of amastigotes per cell as infection level measurement.; assay type: functional, organism-based, Rattus norvegicus; conditions: H9c2, 4 h
[4] = tested on: Trypanosoma cruzi; assay: as §1, with “H2C9” for “Trypanosoma cruzi”, “H9c2 Host Cardiomyocytes.” for “Infected Cells.”, “Number” for “percentage”, “H9c2 Host Cardiomyocytes nuclei to determine drug-related cytotoxicity.” for “infected cells per well as a second infection marker.”; assay type: functional, organism-based, Rattus norvegicus; conditions: H9c2, 4 h
[5] = tested on: Leishmania donovani; assay: GSK_TCAKS: pIC50 Leishmania donovani viability assay using fluorescence intensity. Assay plates (1536-well) were prepared by adding 30nL per well of compound. For single shot assay, the final compound concentration was 5uM. […] Briefly, eGFP LdBOB axenic amastigotes were harvested, fixed and counted in a CASY cell counter (Roche-Applied Science). A final concentration of 1.5 * 10^5 cells per well were prepared in amastigote media containing 500 U/mL penicillin/streptomycin (Invitrogen) and 6uL was dispensed to each experimental well using a Multidrop Combi dispenser (Thermo Scientific). 6uL of assay media was dispensed to control columns used as reference for 100% compound response. Following incubation for 72 h at 37C, 5% CO2, 2 uL of resazurin was added to each well at a final concentration of 0.5 mM in phosphate buffered saline (PBS) with IGEPAL (Sigma-Aldrich), 0.05% (v/v).; assay type: functional, organism-based
[6] = tested on: Leishmania donovani; assay: (§2) GSK_TCAKS: pIC50 Leishmania donovani Imaging: Infected Macrophages. Assay plates (384-well) were prepared by adding 250nL of compound to each well. For single shot assay, the final compound concentration was 5 uM. […] Automated image analysis was performed with a script developed on Acapella High Content Imaging and Analysis Software (PerkinElmer). Output: Percent of infected macrophage cells were reported for each well.; assay type: functional, organism-based, Homo sapiens; conditions: THP-1
[7] = tested on: Leishmania donovani; assay: as §2, with “Amastigotes/Macrophages.” for “Infected Macrophages.”, “Average number” for “Percent”, “amastigotes per” for “infected”, “cell” for “cells”; assay type: functional, organism-based, Homo sapiens; conditions: THP-1
[8] = tested on: Leishmania donovani; assay: as §2, with “THP-1 Host” for “Infected”, “THP-1 cell count” for “Percent of infected macrophage cells”; assay type: functional, organism-based, Homo sapiens
[9] = tested on: Trypanosoma brucei brucei; assay: GSK_TCAKS: pIC50 Trypanosoma brucei viability assay using fluorescence intensity. Assay plates (1536-well) were prepared by dispensing 25nL of compound solution per well using an Echo acoustic dispenser (Labcyte).; assay type: functional, organism-based; conditions: Lister 427, 2 h
[10] = tested on: Trypanosoma brucei brucei; assay: GSK_TCAKS: pIC50 Trypanosoma brucei viability assay using luminiscence. Assay plates (1536-well) were prepared. T. brucei cultures were harvested and counted in a CASY cell counter. A parasite suspension was prepared at a final concentration of 5 * 10^4 cells/mL in complete HMI9 medium and 6uL was dispensed to all wells containing compounds using a Multidrop Combi dispenser. 6uL of HMI9 media with 0.4% DMSO were dispensed to control columns. Plates were incubated for 24 h at 37C, 5% CO2 then tempered for 10 min at room temperature. ATP content was quantified by adding 4 uL of CellTiter-Glo Reagent (Promega) according to the manufacturer's instructions. Luminescence was measured using a ViewLux.; assay type: functional, organism-based; conditions: Lister 427, CASY
[11] = GSK_TCAKS: pIC50 HepG2 human cell line viability assay using luminiscence. […] Seeding density was checked to ensure that new mono-layers were not more than 50% confluent at the time of harvesting. Cell suspension was added to 500 mL of the same medium at a final density of 1.2 * 10^5 cells/mL. This cell suspension was dispensed (25 uL, 3000 cells per well) into 384-well clear-bottom plates using a Multidrop Combi dispenser. Prior to addition of the cell suspension, the screening compounds (250 nL) were pre-dispensed into the plates with an Echo liquid handler. Plates were incubated for 48 h at 37C, 5% CO2. After incubation, plates equilibrated at room temperature for 30 min before proceeding to develop the luminescent signal. The signal developer, CellTiter-Glo Reagent, was allowed to equilibrate at room temperature for 30 min and added to the plates (25uL per well) using a Multidrop Combi dispenser. Plates were left for 10 min at room temperature for stabilization and then read using a ViewLux.; assay type: toxicity, cell-based
[12] = biological target: Sterol 14-alpha demethylase (Trypanosoma cruzi (strain CL Brener), UniProt Q7Z1V1); assay: GSK_TCAKS: pIC50 CYP51 from Trypanosoma cruzi.; assay type: functional
Sterol 14-alpha demethylase, sequence (Q7Z1V1 whole entry): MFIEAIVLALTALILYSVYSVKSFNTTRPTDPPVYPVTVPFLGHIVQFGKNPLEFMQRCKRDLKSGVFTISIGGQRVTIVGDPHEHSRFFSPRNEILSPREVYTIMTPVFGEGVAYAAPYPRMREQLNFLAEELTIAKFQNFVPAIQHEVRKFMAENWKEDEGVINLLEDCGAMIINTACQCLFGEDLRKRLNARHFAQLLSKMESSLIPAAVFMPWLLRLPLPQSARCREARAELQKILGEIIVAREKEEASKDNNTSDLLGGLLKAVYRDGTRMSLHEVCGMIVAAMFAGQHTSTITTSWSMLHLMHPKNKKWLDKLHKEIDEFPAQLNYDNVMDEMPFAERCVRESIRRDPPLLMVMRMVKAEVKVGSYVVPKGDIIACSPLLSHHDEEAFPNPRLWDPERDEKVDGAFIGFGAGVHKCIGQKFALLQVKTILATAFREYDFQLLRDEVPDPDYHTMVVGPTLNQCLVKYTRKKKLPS

Compound	IC50 [1]	IC50 [2]	IC50 [3]	IC50 [4]	IC50 [5]	IC50 [6]	IC50 [7]	IC50 [8]	IC50 [9]	IC50 [10]	IC50 at 48 h [11]	IC50 [12]
CC(C)c1cc(Nc2cc(Cc3ccccc3)nc(N[C@H]3CC[C@H](O)CC3)n2)n[nH]1	0.0794 µM	0.0794 µM	0.0316 µM	0.00631 µM	3.16 µM	0.0631 µM	0.0398 µM	0.02 µM	0.0794 µM	0.1 µM	31.6 µM	20 µM
O=C(Nc1ccc(S(=O)(=O)N2CCCC2)cc1)c1ccc([N+](=O)[O-])s1	0.2 µM	0.2 µM	0.2 µM	1.58 µM	7.94 µM	1.58 µM	1 µM	> 50.1 µM	0.158 µM	0.2 µM	6.31 µM	> 100 µM
COc1ccc(S(=O)(=O)Nc2ccc(C(=O)Nc3nc(-c4ccccn4)cs3)cc2)cc1	0.891 µM	0.794 µM	0.631 µM	6.31 µM	1 µM	0.398 µM	0.158 µM	10 µM	0.794 µM	0.631 µM	63.1 µM	0.398 µM
Cc1ccc(Nc2nc(-c3ccccn3)cc(N3CCCC(O)C3)n2)cc1 (stereo not drawn)	0.501 µM	6.31 µM	2.51 µM	0.501 µM	2 µM	0.794 µM	0.501 µM	25.1 µM	3.16 µM	3.16 µM	39.8 µM	25.1 µM
Cc1cc2cc(CNc3ccc4c(c3)OCO4)c(=O)n(CCO)c2cc1C	0.631 µM	0.251 µM	0.2 µM	> 50.1 µM	6.31 µM	0.501 µM	0.251 µM	39.8 µM	25.1 µM	> 39.8 µM	> 100 µM	10 µM
Cc1cc(N2CCc3ccccc3C2)nc(Nc2ccc(S(=O)(=O)N3CCOCC3)cc2)n1	> 50.1 µM	> 50.1 µM	25.1 µM	> 50.1 µM	3.16 µM	5.01 µM	1.58 µM	25.1 µM	31.6 µM	> 39.8 µM	> 100 µM	> 100 µM
CNC(=O)C1Cc2ccccc2N1C(=O)COc1cccc(OC)c1 (stereo not drawn)	> 50.1 µM	> 50.1 µM	> 50.1 µM	> 50.1 µM	> 50.1 µM	> 50.1 µM	> 50.1 µM	> 50.1 µM	0.631 µM	1 µM	> 100 µM	100 µM
CS(=O)(=O)N1CCC(Nc2ncc(Br)c(Nc3cccc(F)c3C(N)=O)n2)CC1	0.316 µM	1 µM	0.398 µM	0.158 µM	0.1 µM	1.58 µM	0.794 µM	1 µM	0.01 µM	0.0158 µM	> 100 µM	> 100 µM
CN(Cc1nc2cccc(C(=O)N3CCN(Cc4ccccc4)CC3)c2[nH]1)C1CCCc2cccnc21 (stereo not drawn)	0.794 µM	0.501 µM	0.501 µM	7.94 µM	5.01 µM	1.26 µM	0.794 µM	10 µM	0.631 µM	1 µM	12.6 µM	39.8 µM
